Data published in patent US8293682B2, “Growth regulators for gramineous weeds” (Rikengreen Co., Ltd., priority 2008, dated 2012).

Tests used:
[1] = test system: annual bluegrass (Poa annua L.); experiment: Test Example 2: count of ear emergence, poly-cup, applications at intervals / alternate application; format: in vivo
Method: At the initial stage of the ear emergence of annual bluegrass (Poa annua L.) grown in a poly-cup of 11 cm×11 cm, benzyladenine (Beanine for painting; made by Rikengreen; containing 1% benzyladenine) and/or ethephon (Ethrel 10 soluble concentrate; Nissan Chemical Industries; containing 10% ethephon) were diluted in a predetermined amount of water, and a spreader (Riken Sprayzer (registered trade mark); made by Rikengreen) was added so as to be 1/1,000-fold concentration; the respectively diluted solutions were applied by atomization at a dose and intervals as indicated in Table (scattered solution: 200 mL/m^2), and the number of emerged ears of annual bluegrass (Poa annua L.) in the cup was counted through time. The test was carried out serially. […] The symbol “●” in Table indicates the treatment with benzyladenine, “◯” the treatment with ethephon, and “−” untreated. Dose means the amount at a single application.

[2] = test system: annual bluegrass (Poa annua L.); details: cited from earlier work

Row | Structure (SMILES) | Count of ear emergence ([1]; Day 25, Benzyladenine 0.67 mg a.i./m^2 applied Day 0, 6, 12) | Count of ear emergence ([1]; Day 25, Benzyladenine 0.67 mg a.i./m^2 applied Day 6, 12) | Count of ear emergence ([1]; Day 25, Benzyladenine 0.67 mg a.i./m^2 applied Day 12) | Count of ear emergence ([1]; Day 25, Benzyladenine 2 mg a.i./m^2 applied Day 0, 6, 12) | Count of ear emergence ([1]; Day 25, Benzyladenine 2 mg a.i./m^2 applied Day 6, 12) | Count of ear emergence ([1]; Day 25, Benzyladenine 2 mg a.i./m^2 applied Day 12) | Count of ear emergence ([1]; Day 33, Benzyladenine 0.67 mg a.i./m^2 applied Day 0, 6, 12) | Count of ear emergence ([1]; Day 33, Benzyladenine 0.67 mg a.i./m^2 applied Day 6, 12) | Count of ear emergence ([1]; Day 33, Benzyladenine 0.67 mg a.i./m^2 applied Day 12) | Count of ear emergence ([1]; Day 33, Benzyladenine 2 mg a.i./m^2 applied Day 0, 6, 12) | Count of ear emergence ([1]; Day 33, Benzyladenine 2 mg a.i./m^2 applied Day 6, 12) | Count of ear emergence ([1]; Day 33, Benzyladenine 2 mg a.i./m^2 applied Day 12) | Count of ear emergence ([1]; Day 25, Ethephon 40 mg a.i./m^2 applied Day 10) | Count of ear emergence ([1]; Day 33, Ethephon 40 mg a.i./m^2 applied Day 10) | growth of annual bluegrass growing among Kentucky bluegrass ([2]; Non-patent document 3, dose of 3.2 kg/hectare) | ear emergence of annual bluegrass growing among bent grass ([2]; Non-patent document 4, 3.8-7.6 kg/hectare)
1 | c1ccc(CNc2ncnc3nc[nH]c23)cc1 [Benzyladenine, 6-benzylaminopurine] | 37 | 34 | 37 | 20 | 14 | 22 | 50 | 24 | 28 | 26 | 15 | 23 | – | – | – | –
2 | O=P(O)(O)CCCl [Ethephon, 2-chloroethylphosphonic acid] | – | – | – | – | – | – | – | – | – | – | – | – | 35 | 27 | slowed growth | inhibits the ear emergence
